Results: publication PMC3478670 (Journal of medicinal chemistry, 2012)

Tested on: not listed separately
Experiment: in vitro
Settings: human, pooled human liver microsomes, pH 7.4
`C=C(C)[C@@H]1CC[C@]2(C(=O)N3CCN(CCCCC(=O)O)CC3)CC[C@]3(C)[C@H](CC[C@@H]4[C@@]5(C)CC[C@H](OC(=O)CC(C)(C)C(=O)O)C(C)(C)[C@@H]5CC[C@]43C)[C@@H]12` [Compound 41, N-[3β-O-(3′,3′-Dimethylsuccinyl)-lup-20(29)-en-28-oyl]-5-piperazinepentanoic acid] showed a microsomal CLint at 1 μM of 2.1 µL/min/mg.

Tested on: HIV-1NL4-3
Experiment: HIV-1NL4-3 replication inhibition assay in MT-4 lymphocytes
Assay type: cell-based
Settings: HIV-1NL4-3 infected MT-4 cells
In the case of `C=C(C)[C@@H]1CC[C@]2(C(=O)OCOC)CC[C@]3(C)[C@H](CC[C@@H]4[C@@]5(C)CC[C@H](OCOC)C(C)(C)[C@@H]5CC[C@]43C)[C@@H]12` [Compound 3, Methoxymethyl 3β-methoxymethoxy-lup-20(29)-en-28-oate], the “anti-HIV replication activity (in words)” value is reported as “did not show anti-HIV activity”.
In the case of `C=C(C)[C@@H]1CC[C@]2(C(=O)OCOCCOC)CC[C@]3(C)[C@H](CC[C@@H]4[C@@]5(C)CC[C@H](OCOCCOC)C(C)(C)[C@@H]5CC[C@]43C)[C@@H]12` [Compound 4, Methoxyethoxymethyl 3β-methoxyethoxymethoxy-lup-20(29)-en-28-oate], the “anti-HIV replication activity (in words)” value is reported as “did not show anti-HIV activity”.
In the case of `C=C(C)[C@@H]1CC[C@]2(C(=O)O)CC[C@]3(C)[C@H](CC[C@@H]4[C@@]5(C)CC[C@H](OCOC)C(C)(C)[C@@H]5CC[C@]43C)[C@@H]12` [Compound 5, 3β-Methoxymethoxy-betulinic acid], the “anti-HIV replication activity (in words)” value is reported as “did not show anti-HIV activity”.
In the case of `C=C(C)[C@@H]1CC[C@]2(C(=O)O)CC[C@]3(C)[C@H](CC[C@@H]4[C@@]5(C)CC[C@H](OCOCCOC)C(C)(C)[C@@H]5CC[C@]43C)[C@@H]12` [Compound 6, 3β-Methoxyethoxymethoxy-betulinic acid], the “anti-HIV replication activity (in words)” value is reported as “did not show anti-HIV activity”.
For `C=C(C)[C@@H]1CC[C@]2(C(=O)OCOC)CC[C@]3(C)[C@H](CC[C@@H]4[C@@]5(C)CC[C@H](O)C(C)(C)[C@@H]5CC[C@]43C)[C@@H]12` [Compound 7, Methoxymethyl 3β-hydroxy-lup-20(29)-en-28-oate], the “anti-HIV replication activity (in words)” value was “did not show anti-HIV activity”.
With `C=C(C)[C@@H]1CC[C@]2(C(=O)OCOCCOC)CC[C@]3(C)[C@H](CC[C@@H]4[C@@]5(C)CC[C@H](O)C(C)(C)[C@@H]5CC[C@]43C)[C@@H]12` [Compound 8, Methoxyethoxymethyl 3β-hydroxy-lup-20(29)-en-28-oate] the “anti-HIV replication activity (in words)” value was “did not show anti-HIV activity”.
With `C=C(C)[C@@H]1CC[C@]2(C(=O)OCCCCCCCC)CC[C@]3(C)[C@H](CC[C@@H]4[C@@]5(C)CC[C@H](OC(=O)CC(C)(C)C(=O)O)C(C)(C)[C@@H]5CC[C@]43C)[C@@H]12` [Compound 23, Octyl 3β-O-(3′,3′-dimethylsuccinyl)-lup-20(29)-en-28-oate] the “anti-HIV replication activity (in words)” value was “no inhibition of HIV-1 replication”.
